Reference: BindingDB's records for doi:10.1016/j.bmcl.2009.09.018 (Sun Yat-Sen University, 2009)

Molecular target: T1, Polyphenol oxidase 2 (Agaricus bisporus, UniProt O42713)
T1 sequence (O42713 whole entry): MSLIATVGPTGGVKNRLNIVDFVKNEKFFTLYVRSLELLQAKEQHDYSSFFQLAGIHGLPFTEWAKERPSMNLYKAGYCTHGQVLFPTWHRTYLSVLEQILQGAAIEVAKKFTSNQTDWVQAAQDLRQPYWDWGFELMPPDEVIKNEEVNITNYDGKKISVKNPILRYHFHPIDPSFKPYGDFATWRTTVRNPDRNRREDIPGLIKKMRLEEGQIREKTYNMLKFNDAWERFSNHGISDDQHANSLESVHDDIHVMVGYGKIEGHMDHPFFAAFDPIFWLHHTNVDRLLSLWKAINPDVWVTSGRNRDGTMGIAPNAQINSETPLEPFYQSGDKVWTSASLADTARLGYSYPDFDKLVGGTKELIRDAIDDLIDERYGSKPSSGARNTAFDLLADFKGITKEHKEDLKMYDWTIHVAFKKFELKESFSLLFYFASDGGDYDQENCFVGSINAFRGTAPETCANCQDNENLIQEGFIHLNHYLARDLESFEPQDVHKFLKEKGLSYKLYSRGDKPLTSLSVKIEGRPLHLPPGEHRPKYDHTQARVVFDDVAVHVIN
Test: Inhibition of mushroom tyrosinase

Row | IC50 | Structure (SMILES)
1 | > 200 µM | O=NCc1ccc(O[C@@H]2OC[C@@H](OC(=O)c3ccccc3)[C@H](OC(=O)c3ccccc3)[C@H]2OC(=O)c2ccccc2)cc1 [(2S,3R,4S,5R)-2-(4-((hydroxyimino)methyl)phenoxy)tetrahydro-2H-pyran-3,4,5-triyl tribenzoate]
2 | > 200 µM | O=NCc1ccc(O[C@@H]2O[C@H](COC(=O)c3ccccc3)[C@@H](OC(=O)c3ccccc3)[C@@H](OC(=O)c3ccccc3)[C@H]2OC(=O)c2ccccc2)cc1 [(2R,3R,4R,5R,6S)-2-(benzoyloxymethyl)-6-(4-((hydroxyimino)methyl)phenoxy)tetrahydro-2H-pyran-3,4,5-triyl tribenzoate]
3 | > 200 µM | CC(=O)OC[C@H]1O[C@@H](Oc2ccc(CN=O)cc2)[C@H](OC(C)=O)[C@@H](OC(C)=O)[C@@H]1OC(C)=O
4 | > 200 µM | O=NCc1ccc(O[C@@H]2O[C@H](CO)[C@@H](O)[C@@H](O)[C@H]2O)cc1 [4-((2S,3R,4R,5S,6R)-3,4,5-trihydroxy-6-(hydroxymethyl)tetrahydro-2H-pyran-2-yloxy)benzaldehyde oxime]

More lines, now with the values behind:

Row | Structure (SMILES) | IC50
5 | O=NCc1ccc(O[C@@H]2O[C@H](CO)[C@@H](O)[C@H](O)[C@H]2O)cc1 | > 200 µM
6 | CC(=O)OC[C@H]1O[C@@H](Oc2ccc(CN=O)cc2)[C@H](OC(C)=O)[C@@H](OC(C)=O)[C@H]1OC(C)=O [(2R,3S,4S,5R,6S)-2-(acetoxymethyl)-6-(4-((hydroxyimino)methyl)phenoxy)tetrahydro-2H-pyran-3,4,5-triyl triacetate] | > 200 µM
7 | CC(=O)OC[C@H]1O[C@@H](Oc2ccc(CN=O)cc2)[C@H](OC(C)=O)[C@H](OC(C)=O)[C@@H]1OC(C)=O [(2R,3R,4R,5R,6S)-2-(acetoxymethyl)-6-(4-((hydroxyimino)methyl)phenoxy)tetrahydro-2H-pyran-3,4,5-triyl triacetate] | > 200 µM
8 | CC(=O)OC[C@H]1O[C@@H](O[C@H]2[C@H](OC(C)=O)[C@@H](OC(C)=O)[C@H](Oc3ccc(CN=O)cc3)O[C@@H]2COC(C)=O)[C@H](OC(C)=O)[C@@H](OC(C)=O)[C@H]1OC(C)=O [(2R,3S,4S,5R,6S)-2-(acetoxymethyl)-6-((2R,3R,4S,5R,6S)-4,5-diacetoxy-2-(acetoxymethyl)-6-(4-((hydroxyimino)methyl)phenoxy)tetrahydro-2H-pyran-3-yloxy)tetrahydro-2H-pyran-3,4,5-triyl triacetate] | > 200 µM
